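Following 48 hours of exposure in 96-well plates, responses at five concentrations were used to interpolate endpoints linearly. TGI marks complete inhibition of growth.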
What was measured:
Experiment in all cases: NCI tumour cell line growth inhibition, 48 h
[1] = tested on: CAKI-1 renal
[2] = tested on: HCC-2998 colon
[3] = tested on: HOP-92 NSCLC
[4] = tested on: MDA-MB-231 breast
[5] = tested on: SK-OV-3 ovarian
[6] = tested on: TK-10 renal
[7] = tested on: A549 NSCLC
[8] = tested on: NCI-H23 lung
[9] = tested on: SR leukemia
[10] = tested on: UACC-62 melanoma

SMILES | TGI [1] [µM] | TGI [2] [µM] | TGI [3] [µM] | TGI [4] [µM] | TGI [5] [µM] | TGI [6] [µM] | TGI [7] [µM] | TGI [8] [µM] | TGI [9] [µM] | TGI [10] [µM]
COc1c(O)c(OC)c(C(=O)/C=C/c2ccccc2)c(O)c1OC | > 100 | > 100 | 81 | 72 | > 100 | > 100 | – | – | – | –
N#Cc1c2c(c(N=[N+]=[N-])n3c1nc1ccccc13)CCCC2 | 6.39 | 25.8 | – | – | 3.64 | 5.76 | 17 | 6.27 | > 100 | –
COC(=O)/C(=N\NC(=O)c1ccccc1O)C(C#N)c1ccc(Cl)cc1 (stereo unspecified) | – | 88.7 | > 100 | – | – | > 100 | > 100 | 76 | > 100 | > 100
O=C(Oc1c(I)ccccc1=O)c1ccc([N+](=O)[O-])cc1 | 55.1 | 49.5 | – | 87.7 | – | > 100 | 63.2 | 99.6 | 24.2 | 51
CN1CC2(CCCCC2)C(O)C12C=CCCC2 (stereo unspecified) | > 100 | > 100 | – | – | > 100 | > 100 | > 100 | > 100 | – | > 100
O=C(OCc1ccccc1CN1CCOCC1)c1ccc(Br)cc1 | – | > 100 | > 100 | > 100 | > 100 | > 100 | > 100 | > 100 | – | > 100
O=C1OCC(C(=O)c2cccc(O)c2)C1=O (stereo unspecified) | > 100 | > 100 | > 100 | – | > 100 | > 100 | > 100 | > 100 | – | > 100
CO[C@H]1C=C[C@]23c4cc5c(cc4CN(CC2O)[C@@H]3C1)OCO5 (stereo partly specified) | > 100 | 16.7 | 2.74 | 34.6 | 3.3 | > 100 | 44.9 | 33 | – | 19.6
CC1=CC2=C(C)C3(CC3)[C@@](C)(O)C(=O)C2=C1 | 0.744 | 0.406 | 0.692 | – | 0.799 | 0.89 | > 0.975 | 0.186 | > 1 | 0.44
CCOC(=O)c1cnc2[nH]c(=O)c3ccccc3n2c1=O | > 100 | – | > 100 | – | > 100 | > 100 | > 100 | > 100 | > 100 | > 100
CCC1OCCN1C(C)C (stereo unspecified) | – | > 100 | – | – | > 100 | > 100 | > 100 | > 100 | > 100 | > 100
O=c1c2ccccc2nc(-c2ccccc2)n1NCC1(O)OCC(O)C(O)C1O (stereo unspecified) | > 100 | > 100 | > 100 | – | > 100 | > 100 | > 100 | > 100 | – | > 100
Cn1c(=O)c2c3oc(=O)cc(O)c3c(=O)n3c4ccccc4n(c1=O)c23 | > 100 | > 100 | 95.9 | – | > 100 | > 100 | > 100 | > 100 | > 100 | > 100
